Measurements from patent publication US20250263370A1 (Tay Therapeutics Limited, priority 2022, published 2025).
Values joined by “and” are separate entries in the source; they are usually repeats but may differ in a detail not shown here. Equal entries are not always repeated. Where two headings read alike, the source gives them in different places. Marks after values point to notes of the source that are not given here.

Columns and labels:
[1] = test system: rat anti-collagen IgG1 antibodies; assay: Rat anti-collagen IgG1 antibodies in serum of CIA rats at day 21; format: in vivo, Lewis rat; conditions: Group 4 (CIA + GSK620)
Method: Blood was additionally collected from groups 1-7 via cardiac puncture following euthanasia on Day 21. […] Serum was divided into two separate tubes and stored at −75±15° C. One tube was used to analyze IgG1, and the other tube was reserved for additional analyses.

IL-17A = IL-17A levels by ELISA in stimulated human peripheral blood mononuclear cells; format: cell-based; conditions: Homo sapiens, PBMC
Method: (§1) CD2, CD3, and CD28 antibody-coated beads from the T-cell activation/expansion kit (Miltenyi Biotec) were added to the PBMC at a bead-to-cell ratio of 1:2.
(§2) The mixture of PBMCs and beads were seeded into the wells of the round-bottom 96-well plate at a concentration of 2×10^5 cells/well in a total volume of 200 μL. The cells were cultured for 72 hours at 37° C. and 5% CO2 and then supernatants were collected and IL-17A and IL-22 levels were measured by ELISA. […] The final compound concentration ranged from 30,000 nM to 0.005 nM and the final DMSO concentration per well was 0.3%. PBMCs were seeded at approximately 2×10^5 cells/well in the wells of the 96-well tissue culture plate in a total volume of 190 μL. The plate was incubated for 1 hour at 37° C. and 5% CO2. […] The cells were then cultured for 24 hours at 37° C. and 5% CO2. The supernatant was collected and CXCL10 levels were measured by ELISA.

[2] = test system: collagen-induced arthritis; assay: Histopathologic analysis of H&E-stained hind limbs of CIA rats; format: in vivo, Lewis rat
From the text: Hind limbs were collected following euthanasia, with the left limb being used for H&E staining.
H&E-stained slides of designated tissues from animals were transferred to an independent pathologist for microscopic evaluation (SPFBio). Samples were assigned the histologic grades based on the severity of change from tissue where CIA was not induced. Histology grades assigned were as follows: grade 1 (minimal change), grade 2 (mild change), grade 3 (moderate change), grade 4 (marked change), and grade 5 (severe change).
Moderate inflammation was also associated with increased edema fluid, fibrin, and cellular debris. Marked mixed cell inflammation was characterized by dense, widespread accumulations of neutrophils and macrophages with lesser number of lymphocytes within one or more joint spaces, synovium and periarticular soft tissues. Marked inflammation was also associated with abundant edema fluid, fibrin, and cellular debris.
Marked granulation tissue (pannus) was associated with inflammation and was characterized by widespread fibrovascular connective tissue that expanded/replaced the periarticular soft tissues of one or more joints, extended into/expanded joint spaces, was contiguous with areas of erosion/ulcer in articular cartilage and/or increased eroded surface of bone, and variably extended along the diaphysis.
Instances of minimal increased eroded surface were not associated with fragments of bone contiguous and/or surrounded by granulation tissue. […] In some areas, increased eroded surfaces were contiguous with areas of erosion/ulcer in the articular cartilages. Instance of marked increased eroded surface were often associated with fragments of bone contiguous with and/or surrounded by granulation tissue.
This observation was typically most pronounced at joint margins (transition zone). The ulceration was often associated with inflammation and granulation tissue extending through the defect to the subchondral bone.
Marked increased periosteal bone (periosteal bone formation) was characterized by extensive areas of increased bone matrix and numerous prominent osteoblasts lining trabecular surfaces along the metaphysis and/or diaphysis of one or more bones. In some areas, increased periosteal bone was contiguous with increased eroded surface and/or erosion/ulcer at articular cartilage.

IL-22 = IL-22 levels by ELISA in stimulated human peripheral blood mononuclear cells; format: cell-based; conditions: Homo sapiens, PBMC
Method: as §1, §2

[3] = test system: collagen-induced arthritis; conditions: rat, in vivo, po
Method: Prior to be randomly placed in treatment groups, animals were weighed, and paw volume was measured. Once randomly assigned to treatment groups, on Day 0, animals in groups 2-9 were immunized by subcutaneous injection at the base of the tail.
The immunization comprised 100 μL of the CFA+Collagen emulsion (prepared according to the method in Experimental Method A). Animals in group one received no immunization. Seven days after the first injection, animals in groups 2-9 received a booster immunization comprising 200 μL of the IFA+Collagen emulsion (prepared according to the method in Experimental Method A).
Starting on Day 0, animals in group 1 and 2 were administered daily doses of the vehicle per os (P.O.) for 21 days. […] The twice daily doses for animals in groups 4-9 were 8 hours apart (e.g., the first dose at 8:00 AM and the second dose at 4:00 PM).
Body weight of all animals was recorded daily for the 21-day period. Blind clinical scores on all four limbs were conducted for all animals in the study. Animals were assessed prior to receiving their first dose of the compound or control, and scores for each limb were combined to a total daily score for each animal. Clinical score assessments were performed on Day 0, 6, 12, 13, 14, 15, 18, 19, and 21 (for a total of 9 daily scores).
Paw volume was recorded for each animal on Day 0, 6, 12, 13, 14, 15, 18, 19, and 21 (for a total of 9 measurements). To measure paw volume, animals were gently held with one hand while the hind paw was placed into a plethysmometer with the other hand. Lipid displacement by the paw was recorded and used to represent paw volume.
All data measured and recorded was analyzed using SPSS 16.0 software. Groups were compared using one-way ANOVA and significance was set at p<0.05.

[4] = Pharmacokinetics and plasma concentration of Example 101 in Lewis rats after oral administration (CIA study); format: in vivo, Lewis rat; conditions: Day 21, Group 4 (CIA + GSK620)
[5] = CIA rats, daily P.O. (group 4), hind limb H&E
[6] = hind limbs, CIA induced, 8 animals examined

CNC(=O)c1cc(C(=O)NC2CC2)cn(Cc2ccccc2)c1=O [GSK620]
Average rat anti-collagen IgG1 levels, Mean ([1]; day 21, group mean): 7532.82*
Final Rat Anti-Collagen IgG1 Antibody Con. ([1]; day 21, per animal): 9149.39 units/ml and 10971.56 units/ml and 258.62 units/ml and 1400.18 units/ml and 15017.25 units/ml and 2682.44 units/ml and 9308.00 units/ml and 11475.12 units/ml
Rat Anti-Collagen IgG1 Antibody Con. ([1]; before multiplying by Fold 2000, day 21, per animal): 4.57 units/ml and 5.49 units/ml and 0.13 units/ml and 0.70 units/ml and 7.51 units/ml and 1.34 units/ml and 4.65 units/ml and 5.74 units/ml
IC50 (IL-17A; Test Subject 1, read-out: IL-17A IC50): 0.0805 µM
IC50 (IL-17A; Test Subject 2, read-out: IL-17A IC50): 0.0597 µM
IC50 (IL-17A; Test Subject 3, read-out: IL-17A IC50): 0.139 µM
IC50 (IL-17A; mean of test subjects, read-out: IL-17A IC50 Mean): 0.0932 µM
erosion/ulcer in articular cartilage [2, 5]: mild and mild to moderate
granulation tissue (pannus) [2, 5]: mild and mild to moderate
increased eroded surface of bone (bone resorption) [2, 5]: mild and minimal to moderate
increased periosteal bone (periosteal bone formation) [2, 5]: mild and mild to moderate
mixed cell inflammation [2, 5]: moderate
pathologic observations after microscopic evaluation, overall ([2]; CIA rats, daily P.O. for 21 days): at a lower level relative to samples from animals in the CIA-induced group
Number of animals: Erosion/Ulcer, cartilaginous, Marked [2, 6]: 0
Number of animals: Erosion/Ulcer, cartilaginous, Mild [2, 6]: 6
Number of animals: Erosion/Ulcer, cartilaginous, Minimal [2, 6]: 0
Number of animals: Erosion/Ulcer, cartilaginous, Moderate [2, 6]: 2
Number of animals: Granulation tissue, Marked [2, 6]: 0
Number of animals: Granulation tissue, Mild [2, 6]: 4
Number of animals: Granulation tissue, Minimal [2, 6]: 0
Number of animals: Granulation tissue, Moderate [2, 6]: 4
Number of animals: Increased bone, periosteum, Marked [2, 6]: 0
Number of animals: Increased bone, periosteum, Mild [2, 6]: 6
Number of animals: Increased bone, periosteum, Minimal [2, 6]: 0
Number of animals: Increased bone, periosteum, Moderate [2, 6]: 2
Number of animals: Increased eroded surface, bone, Marked [2, 6]: 0
Number of animals: Increased eroded surface, bone, Mild [2, 6]: 4
Number of animals: Increased eroded surface, bone, Minimal [2, 6]: 1
Number of animals: Increased eroded surface, bone, Moderate [2, 6]: 3
Number of animals: Mixed cell inflammation, Marked [2, 6]: 0
Number of animals: Mixed cell inflammation, Mild [2, 6]: 0
Number of animals: Mixed cell inflammation, Minimal [2, 6]: 0
Number of animals: Mixed cell inflammation, Moderate [2, 6]: 8
Number of animals: No Visible Lesions [2, 6]: 0
IC50 (IL-22; Test Subject 1, read-out: IL-22 IC50): 0.231 µM
IC50 (IL-22; Test Subject 2, read-out: IL-22 IC50): 0.0216 µM
IC50 (IL-22; Test Subject 3, read-out: IL-22 IC50): 0.106 µM
IC50 (IL-22; mean of test subjects, read-out: IL-22 IC50 Mean): 0.12 µM
body weight over the course of the study [3]: modest weight gains over the first 13 days of the study followed by weight loss
diarrhea over the 21-day period [3]: did not have diarrhea
increase in body weight, day 21 compared to day 0 [3]: 0.8%
Plasma concentration ([4]; per animal): 1590 ng/mL and 4170 ng/mL and 3070 ng/mL and 2740 ng/mL and 1760 ng/mL and 3230 ng/mL and 3450 ng/mL and 2540 ng/mL
concentration at 21 day ([4]; Lewis, rat, plasma, oral, read-out: Mean Plasma Concentration): 2820 ng/mL
